Legend:
[1] = test system: T47D; assay: Antiproliferative activity against human T47D cells expressing PI3Kalpha H1047R mutant assessed as inhibition of cell proliferation measured after 72 hrs by CellTiter-Glo reagent based assay; assay type: functional
[2] = Cytotoxicity against human SK-BR-3 cells expressing wild type PI3Kalpha assessed as inhibition of cell proliferation measured after 72 hrs by CellTiter-Glo reagent based assay; assay type: toxicity
[3] = AUC(last) in CD-1 mouse at 10 mg/kg, po by LC/MS/MS analysis; assay type: ADME, organism-based; settings: in vivo
[4] = Oral bioavailability in CD-1 mouse at 10 mg/kg by LC/MS/MS analysis; assay type: ADME, organism-based; settings: in vivo

Row | SMILES | EC50 [1] [nM] | EC50 at 72 h [2] [nM] | AUC(0-t) [3] [ng·h/mL] | bioavailability [4] [%]
1 | Cc1cc(C(C)Nc2ccc(F)cc2C(=O)O)c2nc(N3CCN(CC(F)(F)F)CC3)n(C)c(=O)c2c1 (stereo not drawn) | 1 | 2000 | – | –
2 | Cc1cc(C(C)Nc2ccc(Cl)cc2C(=O)O)c2nc(N3Cc4ccc(F)cc4C3)n(C)c(=O)c2c1 (stereo not drawn) | 1 | 2000 | – | –
3 | Cc1cc(C(C)Nc2ccccc2C(=O)O)c2nc(N3Cc4ccc(C#N)cc4C3)n(C)c(=O)c2c1 (stereo not drawn) | 1 | > 15000 | – | –
4 | Cc1cc(C(C)Nc2ccccc2C(=O)O)c2nc(N3CC[Si](C)(C)CC3)n(C)c(=O)c2c1 (stereo not drawn) | 500 | 2000 | – | –
5 | CC(Nc1ccccc1C(=O)O)c1cc(Cl)cc2c(=O)n(C)c(N3CCN(CC(F)(F)F)CC3)nc12 (stereo not drawn) | 500 | > 15000 | – | –
6 | CC(Nc1ccccc1C(=O)O)c1cc(C(F)(F)F)cc2c(=O)n(C)c(N3CCN(CC(F)(F)F)CC3)nc12 (stereo not drawn) | 500 | 2000 | – | –
7 | CC(Nc1ccc(F)cc1C(=O)O)c1cc(F)cc2c(=O)n(C)c(N3CCN(CC(F)(F)F)CC3)nc12 (stereo not drawn) | 1 | > 15000 | – | –
8 | Cc1cc(C(C)Nc2ccc(F)cc2C(=O)O)c2nc(N3CCC(C)(C)CC3)n(C)c(=O)c2c1 (stereo not drawn) | 1 | 2000 | 10700 | 61

Source: ChEMBL document CHEMBL5579870, “Integrating Neuroprotective and Anti-inflammatory Strategies in the Development of PI3K Inhibitors for Enhanced Cancer Therapy” (ACS Med Chem Lett, 2024)
